SMILES strings stand for the structures.

Consider one molecule from patent US20070208086A1, “UBIQUINONE ANALOGS AND METHODS OF USE” (THE REGENTS OF THE UNIVERSITY OF CALIFORNIA, priority 2006, published 2007).

This data set can be described thus: Determination of reduction potentials by cyclic voltametry (CV). The data set is classed as physicochemical. The source says:
In one embodiment, the compound of the invention has a reduction potential, which is different from the reduction potential of CoQ10. In an exemplary embodiment, the reduction potential found for the compound of the invention is lower than the reduction potential of CoQ10. Methods for the determination of reduction potentials are known in the art and are, for example, described in A. J. Fry, Synthetic Organic Electrochemistry, 2nd Ed., Wiley-Interscience, New York, 1989. For example the reduction potential is measured against the Ag/AgNO3 redox system. “Reduction potential” can mean “first reduction potential”, in which a first electron is transferred (e.g., Q→Q ? ), or “second reduction potential”, in which a second electron is transferred (e.g., Q ? →Q^−2). Typically, “reduction potential” for the purpose of comparing compounds, means the first reduction potential. However, for certain compounds a distinction between a first and a second reduction potential cannot be measured. In these cases, the “overall” (measurable) reduction potential is used to compare reduction potential values of compounds. The reduction potentials for selected ubiquinone analogs of the invention are summarized in Example 12, below. For example, while the first reduction potential of CoQ10 in a particular assay is −1.11, the first reduction potential found for compound 9 is −1.22, which is lower than −1.11. In another example, the overall reduction potential for compound 7 is −1.44, which is lower than −1.11 for CoQ10. In an exemplary embodiment, the ratio (a/b) between the reduction potential of a compound of the invention (a) and the reduction potential of CoQ10 to (b) in a particular assay is between about 1 and about 50. In another exemplary embodiment, the ratio is between about 1 and about 40, preferably between about 1 and about 30, more preferably between about 1 and about 20, and even more preferably between about 1 and about 10. In yet another exemplary embodiment, the ratio is between about 1 and about 8 preferably between about 1 and about 6, more preferably between about 1 and about 4, and most preferably between about 1 and about 2.
The redox chemistry of a variety of purified ubiquinones of the invention was examined using cyclic voltametry (CV). Methods for the determination of reduction potentials are known in the art and are, for example, described in A. J. Fry, Synthetic Organic Electrochemistry, 2nd Ed., Wiley-Interscience, New York, 1989.
The resulting redox data (including those for CoQ10) are listed in the order of increasing first-wave potentials (Epc1) in Table 1, below. The abbreviation Epc1 and Epc2 are used to represent the values of the first and second cathodic peak potentials, respectively. The peak potentials correspond to the first and second reduction wave minima in the recorded CV graphs (see e.g., FIG. 1).
The value of the second peak potential is, typically, an approximation. Chemical side reactions coupled to the transient species generated in the first reduction may contribute to the shape of the wave, and thus the peak potential. […] Representative first and second reduction waves for analogs 1 and 23, as well as for CoQ10, are illustrated in FIG. 1, which represents an expanded portion of the recorded CV graph.

In the case of `COC1=C(OC)C(=O)C(C/C=C(\C)CC/C=C(\C)CC/C=C(\C)CC/C=C(\C)CC/C=C(\C)CC/C=C(\C)CC/C=C(\C)CC/C=C(\C)CC/C=C(\C)CCC=C(C)C)=C(C)C1=O` [CoQ10], for the setting “Epc vs. Ag/AgNO3 in DMF, first cathodic peak potential”, the “Q/Q*− (Epc1), first wave potential” value was −1.11 V. Besides, the “Q*−/Q−2 (Epc2), second wave potential” value (Epc vs. Ag/AgNO3 in DMF, second cathodic peak potential, typically an approximation) is given as −1.42 V. For the same molecule, under “FIG. 1 reduction waves”, the first reduction potential is -1.11 V and the second reduction potential is -1.42 V. Also, for the setting “in a particular assay”, the first reduction potential is recorded as −1.11.
